What all share (type): functional
Assay [1] concerns Spodoptera exigua. The experiment in a line: Resistance factor, LC50 for Spodoptera exigua F22 neonate larvae to LC50 for Spodoptera exigua SS neonate larvae.
The subject of assay [2] is Spodoptera exigua. In words: Insecticidal activity against Spodoptera exigua F22 neonate larvae assessed as mortality at 27 +/- 1 degC, 60 to 70% RH measured after 72 hr. The conditions noted are these: F22, 72 h.
The test system of assay [3] is Spodoptera exigua. In words: Resistance factor, LC50 for Spodoptera exigua F11 neonate larvae to LC50 for Spodoptera exigua SS neonate larvae.
The subject of assay [4] is Spodoptera exigua. The experiment in a line: Insecticidal activity against Spodoptera exigua F0 neonate larvae assessed as mortality at 27 +/- 1 degC, 60 to 70% RH measured after 72 hr. Particulars: F0, 72 h.
For assay [5], the system named is Spodoptera exigua. The experiment in a line: Resistance factor, LC50 for Spodoptera exigua F11 neonate larvae to LC50 for Spodoptera exigua F0 neonate larvae.
In assay [6] the test system is Spodoptera exigua. The experiment in a line: Resistance factor, LC50 for Spodoptera exigua F0 neonate larvae to LC50 for Spodoptera exigua SS neonate larvae.
Assay [7] has as its system Spodoptera exigua. The experiment in a line: Insecticidal activity against susceptible strain Spodoptera exigua SS neonate larvae assessed as mortality at 27 +/- 1 degC, 60 to 70% RH measured after 72 hr.
Assay [8] has as its system Spodoptera exigua. The experiment in a line: Resistance factor, LC50 for Spodoptera exigua F22 neonate larvae to LC50 for Spodoptera exigua F0 neonate larvae.
For assay [9], the system named is Spodoptera exigua. In words: Insecticidal activity against Spodoptera exigua F11 neonate larvae assessed as mortality at 27 +/- 1 degC, 60 to 70% RH measured after 72 hr. Particulars: F11, 72 h.

≈ marks a conversion by molar mass, not a printed value.

For `CNC(=O)c1cc(Cl)cc(C)c1NC(=O)c1cc(Br)nn1-c1ncccc1Cl` [CHLORANTRANILIPROLE], the RatioLC50 with Spodoptera exigua [1] was found to be 137.4; with Spodoptera exigua [3] it was 56.9; in the assay on Spodoptera exigua [5] it was 5; with Spodoptera exigua [6] it was 11.4; with Spodoptera exigua [8] it was 12. Besides, the LC50 stood at 1.88 µg/mL (≈ 3.9 µM) in the assay with Spodoptera exigua [2], 0.157 µg/mL (≈ 0.325 µM) in the assay with Spodoptera exigua [4], 0.0137 µg/mL (≈ 0.0284 µM) in the assay with Spodoptera exigua [7] and 0.78 µg/mL (≈ 1.61 µM) in the assay with Spodoptera exigua [9].

As usually defined, the LC50 is the concentration that kills 50% of the test population.

For the origin of these results see ChEMBL document CHEMBL3045172, “Assessment of resistance risk in Spodoptera exigua (Hübner) (Lepidoptera: Noctuidae) to chlorantraniliprole” (2011).
